Measured values published in patent US8338423B2, “Compositions for the treatment of hyperphenylalaninemia” (Universidad de Zaragoza, priority 2007, dated 2012).

Legend:
[1] = tested on: wt-PAH and I65T and R68S mutants expressed in A293 cells; experiment: PAH activity in extracts of transiently transfected A293 cells; format: cell-based, human; conditions: 40 μM compound, 24 h, vs DMSO 1% controls (FIG. 4A)
Procedure: (§1) Human embryonic kidney cells (A293; purchased from Invitrogen) were grown in Dulbecco's Modified Eagle's Medium (DMEM) containing 4.5 g/l glucose, 10% (v/v) fetal calf serum, 2 mM L-glutamine, 100 i.u./ml penicillin, 100 μg/ml streptomycin and 0.25 mg/ml G-418. A293 cells were transiently transfected with 1 μg of pcDNA3-PAH expression vector (wt or mutant PAH constructs), using the lipofectamine system (Gibco, Invitrogen) as described by the manufacturer. Pharmacological chaperones were added after 5 h of transfection (final concentration 40 μM ligand in DMSO 1%), incubated for 24 h and cells were then harvested and stored at −80° C. […]
(§2) Western blot analyses were performed after SDS-PAGE (10% acrylamide) using as primary antibody a monoclonal mouse ant-human PAH (Chemicon, Australia) and as secondary antibody a goat anti-mouse HRP conjugate (Bio-Rad, US). Detection was performed using a chemiluminiscence method (ECL; Amersham Biosciences) and quantified an a Fluor-S™ Multilmager (Bio-Rad, US) using Quantify one v. […]
(§3) After transfection of A293 cells with constructs carrying wt-PAH and PKU mutants cDNA, the cells were incubated for 24 h in the presence or absence of 40 μM of hit compounds 11 and 13. Cell were harvested and immunoreactive PAH protein and PAH activity were measured in soluble cell extracts. […]

[2] = tested on: PAH protein expressed in A293 cells; experiment: Immunoreactive PAH protein (Western blot) in transfected A293 cells; format: cell-based, human; conditions: 40 μM compound, 24 h (FIG. 4B)
Procedure: as §1, §2, §3

[3] = biological target: T1, PAH (Mus musculus, UniProt P16331); experiment: Hepatic PAH activity in mice after oral treatment; format: in vivo; conditions: oral about 5.9 mg/kg/day for 10 days; for measured PAH activity: liver extract, control group 1.27±0.63
T1 construct: Liver homogenates were prepared at 4° C; from tissue; host or cells: liver of C57Bl/6 mice
T1 sequence (P16331 1-453): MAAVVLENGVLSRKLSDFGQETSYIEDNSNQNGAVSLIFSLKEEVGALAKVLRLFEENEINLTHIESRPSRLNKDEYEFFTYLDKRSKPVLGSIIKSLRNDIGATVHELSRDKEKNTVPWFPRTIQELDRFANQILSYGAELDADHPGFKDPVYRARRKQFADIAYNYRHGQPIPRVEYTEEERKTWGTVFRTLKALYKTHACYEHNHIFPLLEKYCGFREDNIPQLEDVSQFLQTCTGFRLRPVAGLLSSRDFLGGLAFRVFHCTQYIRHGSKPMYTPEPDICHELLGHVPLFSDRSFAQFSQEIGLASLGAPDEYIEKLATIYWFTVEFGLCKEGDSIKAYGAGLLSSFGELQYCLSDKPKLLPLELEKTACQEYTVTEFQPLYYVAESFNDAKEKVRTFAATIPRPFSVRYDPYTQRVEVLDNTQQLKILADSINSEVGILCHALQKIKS
Procedure: Solutions of Compounds 11 and Compound 13 were prepared at concentrations of 5 mg/ml (14 mM) in 10% DMSO and 10% glucose. For that, stocks of 50 mg/ml (140 mM) of each compound in 100% DMSO were diluted 1:10 with a 10% glucose solution. Both the stocks and the final solutions of Compounds 11 and 13 are in fact suspensions since the compound is not soluble al these conditions.
(§4) Animal experiments were performed by Beat Töny (University of Zurich Children's Hospital). 25 μl/day of 10% DMSO (Group 1, control) or the solutions of Compound 11 (Group 2) or Compound 13 (Group […]) were administered orally for 10 days to young adult C57BI/6 mice (all females) exactly 12 weeks old and with weight between 19 to 23 g were in each group, i.e. in Group 2 and 3 animals were given about 5.9 mg/kg/day. Five animals were treated in each group, and no weight change was experienced upon treatment, i.e. <5% change between start and end. Animals were sacrificed at day 10 of treatment, and their livers were sectioned in two frozen immediately in liquid nitrogen, then the frozen half-livers were sent to the Department of Biomedicine, University of Bergen in dry ice. Liver homogenates were prepared at 4° C. in presence of dithiothreitol (DTT) and the protease inhibitors phenylmethylsulfonyl fluoride, leupeptin, and pepstatin as described, Elzaouk L, et al. J Biol Chem 2003; 278(30):28303-11. After homogeneization the extracts were clarified by centrifugation al 170,000 g for 30 min at 4° C.
(§5) The concentration of soluble protein was about 35 mg/ml of liver extract, similar in each group. The hepatic PAH response to oral supplementation of DMSO and of Compounds 11, 13 in 10% DMSO was analyzed b determining: • i) PAH activity, as described, after removal of free amino acids and contaminants of low molecular weight by using Zebra™ Desalt Spin columns(Pierce). • ii) Pah-mRNA expression by quantitative real-time PCR analysis, performed as reported

[4] = tested on: Pah-mRNA; experiment: Pah-mRNA expression in mouse liver by quantitative real-time PCR; format: in vivo; conditions: treated mice compared to controls, 10 days oral
Procedure: as §4, with “Liver homogenates were prepared at 4° C. in presence of dithiothreitol (DTT) and the protease inhibitors phenylmethylsulfonyl fluoride, leupeptin, and pepstatin as described, Elzaouk L, et al. J Biol Chem 2003; 278(30):28303-11. After homogeneization the extracts were clarified by centrifugation al 170,000 g for 30 min at 4° C.” left out
as §5

| measured PAH activity [3] | increase in PAH activity ([3]; liver, C57BI/6 mice) [fold] | increase in PAH activity (significance) ([3]; liver) | SMILES | PAH activity enhancement [1] | PAH immunoreactive protein [2] | Pah-mRNA expression [4] |
| --- | --- | --- | --- | --- | --- | --- |
| 2.2±0.78 | 1.65 |  | Nc1c(-c2ccc3ccccc3n2)c2ccc([N+](=O)[O-])cc2c(=O)n1Cc1ccccc1 [Compound 11, 3-amino-2-benzyl-7-nitro-4-(2-quinolyl)-1,2-dihydroisoquinolin-1-one] | 60-100% | increase in PAH immunoreactive protein was observed | No change |
| 1.41±0.54 |  | not significant | Cc1ccnc(-n2c(=S)[nH]c3sc(C)c(C)c3c2=O)c1 [Compound 13, 5,6-dimethyl-3-(4-methyl-2-pyridinyl)-2-thioxo-2,3 dihydrothieno[2,3-d]pyrimidin-4(1H)-one] | 40-50% |  |  |
